Data published in patent US9381148B2, “Composition comprising particulate zinc material with a high relative zinc lability” (priority 2003, dated 2016).
Where two headings read alike, the source gives them in different places.

Assays:
[1] = zinc salt of the counterion; reference A, selected literature data for 25–30° C.; cited from earlier work
[2] = From the text: Those materials with high potential to bind to the PZM surface are ZBM's that form only sparingly soluble salts with zinc in water. “Sparingly soluble” refers to zinc salts with 1 gram(g)/100 g water solubility or less. These are the materials that form precipitated surface species on the PZM that interfere with zinc lability. A summary of the solubilities of common zinc salts is shown below: […]

| Molecule | Solubility (g/100 g water) ([2]; pH 7) | other results |
| --- | --- | --- |
| [O-][Cl+3]([O-])([O-])O [Perchlorate] |  | Solubility (g/100 g water) [1]: 113.5 g/100 g water |
| O=C(O)c1ccccc1O [Salicylate] | 0.29 |  |
| Laurate |  | Solubility (g/100 g water) ([2]; zinc salt of the counterion, reference B, commercially sourced materials (Pfaltz & Bauer), water at pH 7 and room temperature, filtered, ICP): 0.012 g/100 g water |
| Phosphate | 0.0013 |  |
